Measurements published in ChEMBL document CHEMBL1201862, “PubChem BioAssay data set” (2004).
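Method: 48-hour compound exposure of cells in 96-well plates, five concentrations, linear interpolation of endpoints. GI50 is the concentration that inhibits growth by half.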 Calls of active or inactive are those of the source. Rule as the data show it: active = GI50 up to about 1.1 µM and inactive = higher.

Key:
Test in all cases: NCI anticancer screen, dose series, 48 h
[1] = test system: SF-295
[2] = test system: OVCAR-3
[3] = test system: SNB-75
[4] = test system: A498
[5] = test system: UACC-62
[6] = test system: IGROV-1
[7] = test system: SW-620
[8] = test system: SF-539
[9] = test system: A549
[10] = test system: EKVX
[11] = test system: NCI-H23
[12] = test system: NCI-H460
[13] = test system: MOLT-4
[14] = test system: HCT-15
[15] = test system: K562
[16] = test system: OVCAR-8
[17] = test system: SF-268
[18] = test system: SR

Row | Compound | GI50 [1] | GI50 [2] | GI50 [3] | GI50 [4] | GI50 [5] | GI50 [6] | GI50 [7] | GI50 [8] | GI50 [9] | GI50 [10] | GI50 [11] | GI50 [12] | GI50 [13] | GI50 [14] [µM] | GI50 [15] | GI50 [16] | GI50 [17] | GI50 [18]
1 | CN1C(=O)n2c(nc3ccccc32)C(N=[N+]=[N-])(N=[N+]=[N-])C1=O (stereo not given) | > 100 µM (inactive) | > 100 µM (inactive) | 57.3 µM (inactive) | > 100 µM (inactive) | > 100 µM (inactive) | > 100 µM (inactive) | > 100 µM (inactive) | > 100 µM (inactive) | > 100 µM (inactive) | > 100 µM (inactive) | > 100 µM (inactive) | > 100 µM (inactive) | > 100 µM (inactive) | 99.1 | > 100 µM (inactive) | > 100 µM (inactive) | > 100 µM (inactive) | 
2 | CC(C)c1cccc(C(C)C)c1NC(=S)NN=C1C=C(C(C)(C)C)C(=O)C(C(C)(C)C)=C1 | 31 µM (inactive) | 22.5 µM (inactive) | 21.2 µM (inactive) | 17.9 µM (inactive) | 20.3 µM (inactive) | 26 µM (inactive) | 28.5 µM (inactive) | 19.9 µM (inactive) | 19.9 µM (inactive) | 33.5 µM (inactive) | 16.9 µM (inactive) | 25.6 µM (inactive) | 28.7 µM (inactive) | 37.3 | 23.3 µM (inactive) | 17.8 µM (inactive) | 34.3 µM (inactive) | 35.3 µM (inactive)
3 | Cc1cc2c(cc1Br)C1(C)CCC(C)C1(C)O2 (stereo not given) | 17.3 µM (inactive) | 21.7 µM (inactive) | 36.6 µM (inactive) | 34.6 µM (inactive) | 44 µM (inactive) | 47.6 µM (inactive) | 40.1 µM (inactive) | > 100 µM (inactive) | 36.5 µM (inactive) | 55.6 µM (inactive) | 25.5 µM (inactive) | 23.7 µM (inactive) | 17.9 µM (inactive) | 36.6 | 17.3 µM (inactive) | 29.6 µM (inactive) | 34 µM (inactive) | 13 µM (inactive)
4 | COc1c2nc(CCl)[nH]c(=O)c2c(OC)c2nc(CCl)[nH]c(=O)c12 | > 100 µM (inactive) | > 100 µM (inactive) | > 100 µM (inactive) |  | > 100 µM (inactive) | > 100 µM (inactive) | > 100 µM (inactive) | > 100 µM (inactive) | > 100 µM (inactive) |  | > 100 µM (inactive) | > 100 µM (inactive) | > 100 µM (inactive) | > 100 | > 100 µM (inactive) | > 100 µM (inactive) | > 100 µM (inactive) | 
5 | COc1cc2c(cc1OC)-c1cc3cc(OC)c(OC)cc3n1CC2 | 13.2 µM (inactive) | > 100 µM (inactive) | 18.5 µM (inactive) | 14.4 µM (inactive) | 85.5 µM (inactive) | 90.8 µM (inactive) | 33.9 µM (inactive) |  | 50.2 µM (inactive) | > 100 µM (inactive) | 81.1 µM (inactive) | 36 µM (inactive) | > 100 µM (inactive) |  | 26.3 µM (inactive) | 24.1 µM (inactive) | 81.5 µM (inactive) | > 100 µM (inactive)
6 | O=C1c2ccoc2C(=O)c2oc(=O)ccc21 | 17.5 µM (inactive) | 3.36 µM (inactive) | 6.41 µM (inactive) | > 59.3 µM (inactive) | 17.1 µM (inactive) | 19.6 µM (inactive) | 4.23 µM (inactive) | 3.45 µM (inactive) | 20.3 µM (inactive) | 20.8 µM (inactive) | 2 µM (inactive) | 18.7 µM (inactive) |  | 12 | 6.46 µM (inactive) | 6.35 µM (inactive) | 9.14 µM (inactive) | 1.43 µM (inactive)
7 | CNC(=O)CN(CC(=O)NC)C(=O)NC | > 100 µM (inactive) | > 100 µM (inactive) | > 100 µM (inactive) | > 100 µM (inactive) | > 100 µM (inactive) | > 100 µM (inactive) | > 100 µM (inactive) | > 100 µM (inactive) | > 100 µM (inactive) | > 100 µM (inactive) | > 100 µM (inactive) |  | > 100 µM (inactive) | > 100 | > 100 µM (inactive) | > 100 µM (inactive) | > 100 µM (inactive) | > 100 µM (inactive)
8 | N#C/N=C(/NCCc1c[nH]c2ccccc12)Oc1ccccc1 | 45.8 µM (inactive) | > 100 µM (inactive) | 43 µM (inactive) |  | 75.3 µM (inactive) | > 100 µM (inactive) | > 100 µM (inactive) | 97.9 µM (inactive) | 60.4 µM (inactive) | 26.7 µM (inactive) | > 100 µM (inactive) | 37.1 µM (inactive) | 37.1 µM (inactive) | 56.8 | 26.8 µM (inactive) | > 100 µM (inactive) | > 100 µM (inactive) | 35 µM (inactive)
